Measurements as given in patent publication US20210008145A1, “EDICINE COMPOSITION FOR TREATMENT OF HUMAN PAPILLOMAVIRUS INFECTION AND PREPARATION METHOD THEREOF” (Jiangsu Zhengyang Pharmaceutical Co., Ltd., priority 2018, published 2021).
Like-named read-outs stand apart in the source and are kept apart here.

System: HeLa cells
Test: MTT assay, inhibition of HeLa cell proliferation
Type: cell-based
Settings: Homo sapiens, crude drug 25 g/L (cidofovir 10 μmol/mL), read-out: inhibition percentage on HeLa cell proliferation
Experimental: The percentage inhibition on HeLa cell proliferation for each compound prepared in Examples 1-7 was determined by MTT assay (MTT Cell Proliferation and Cytotoxicity Assay Kit). HeLa cells was cultured in a 96-well plate for 6.0×10^3 cells per well, and allowed to adhere to the surface of the 96-well plate. Serum-free medium was added to each well of control group. Cidofovir was diluted in purified water such that the final concentration of cidofovir in the assay was 10 μmol/mL, and the resulting solution was added to each well of positive control group. Each compound of Examples 1-7 was diluted in water to a crude drug concentration of 25 g/L, and the resulting solution was added to the 96-well plate for a final volume of 200 μL per well. 200 μL of complete medium was only added to each well of blank control group. Each experimental group was done in 6 well replicates. After incubation of 24, 48, and 72 hours, 20 μL of 5 g/L MTT was added to each well and the plates were further incubated at 37° C. for 4 hours. Following discarding the supernatant, 200 μL of dimethyl sulfoxide (DMSO) was added to each well and the plates were shaken sufficiently as so to dissolve the crystals. Absorbance (A) of the wells at 490 nm was measured. These measurements then are used to calculate the percentage inhibition of cell growth: percentage inhibition=1−[…]×100%, where TA refers to the average absorbance of treatment group, and CA refers to the average absorbance of control group.

Nc1ccn(C[C@@H](CO)OCP(=O)(O)O)c(=O)n1 [Cidofovir]
inhibition at 25000 µg/mL (24 hours): 32.2 ± 2.08% | inhibition at 25000 µg/mL (48 hours): 48.6 ± 3.5% | inhibition at 25000 µg/mL (72 hours): 58.1 ± 3.21%
